From ChEMBL document CHEMBL5385929, “Tabersonine Enhances Olaparib Sensitivity through FHL1-Mediated Epithelial-Mesenchymal Transition in an Ovarian Tumor” (J Nat Prod, 2024)
Activity calls are given as the source filed them. No cut-off for these calls is given here.

How the values were obtained:
[1] = tested on: A2780; experiment: Antiproliferative activity against human A2780 cells assessed as inhibition of cell viability measured after 48 hrs by CCK8 assay; type: functional, cell-based; settings: A2780, 48 h
[2] = tested on: SK-OV-3; experiment: Antiproliferative activity against human SK-OV-3 cells assessed as inhibition of cell viability measured after 48 hrs by CCK8 assay; type: functional, cell-based; settings: SK-OV-3, 48 h
[3] = tested on: A2780; experiment: Synergistic antiproliferative activity against human A2780 cells assessed as combination index for reduction of cell viability in presence of olaparib by CCK8 assay; type: functional
[4] = tested on: SK-OV-3; experiment: Potentiation of olaparib sensitivity in human SK-OV-3 cells assessed as inhibition of colony formation at 10 uM incubated for 48 hrs in presence of olaparib followed by drug wash-out and incubated in fresh medium for 2 weeks by crystal violet staining based analysis; type: functional, cell-based
[5] = Toxicity in BALB/c mouse xenografted with human A2780 cells assessed as effect on body weight at 5 to 15 mg/kg, ip administered every other day for 2 weeks; type: organism-based; settings: in vivo, 336 h, dose 5-15 mg/kg
[6] = tested on: A2780; experiment: Antitumor activity against human A2780 cells xenografted in BALB/c mouse assessed as decrease in tumor volume at 5 to 15 mg/kg, ip administered every other day for 2 weeks; type: functional, organism-based; settings: dose 5-15 mg/kg
[7] = tested on: A2780; experiment: Antitumor activity against human A2780 cells xenografted in BALB/c mouse assessed as decrease in tumor weight at 5 to 15 mg/kg, ip administered every other day for 2 weeks; type: functional, organism-based; settings: dose 5-15 mg/kg
[8] = tested on: A2780; experiment: Potentiation of olaparib-induced antitumor activity against human A2780 cells xenografted in BALB/c mouse assessed as decrease in tumor weight at 15 mg/kg, ip co-administered with olaparib for 2 weeks; type: functional, organism-based
[9] = tested on: A2780; experiment: Downregulation of EMT signalling in human A2780 cells assessed as upregulation of E-cadherin protein expression at 10 uM by western blot analysis; type: functional, cell-based
[10] = tested on: SK-OV-3; experiment: Downregulation of EMT signalling in human SK-OV-3 cells assessed as upregulation of E-cadherin protein expression at 10 uM by western blot analysis; type: functional, cell-based
[11] = tested on: A2780; experiment: Potentiation of olaparib sensitivity in human A2780 cells assessed as downregulation of EMT signaling by measuring downregulation of vimentin protein expression at 10 uM in presence of olaparib by western blot analysis; type: functional, cell-based
[12] = tested on: SK-OV-3; experiment: Potentiation of olaparib sensitivity in human SK-OV-3 cells assessed as downregulation of EMT signaling by measuring downregulation of vimentin protein expression at 10 uM in presence of olaparib by western blot analysis; type: functional, cell-based
[13] = tested on: SK-OV-3; experiment: Inhibition of cell invasion in human SK-OV-3 cells at 10 uM measured after 48 hrs by Transwell assay; type: functional, cell-based
[14] = tested on: A2780; experiment: Upregulation of FHL1 protein expression in human A2780 cells by western blot analysis; type: functional, cell-based; settings: dose 5-20 µM
[15] = tested on: SK-OV-3; experiment: Upregulation of FHL1 protein expression in human SK-OV-3 cells by western blot analysis; type: functional, cell-based; settings: dose 5-20 µM
[16] = tested on: A2780; experiment: Downregulation of EMT signalling in human A2780 cells transfected with shFHL1-1 RNA assessed as N-cadherin protein expression at 10 uM by western blot analysis; type: functional, cell-based
[17] = tested on: A2780; experiment: Downregulation of EMT signalling in human A2780 cells transfected with shFHL1-1 RNA assessed as vimentin protein expression at 10 uM by western blot analysis; type: functional, cell-based
[18] = tested on: A2780; experiment: Downregulation of EMT signalling in human A2780 cells transfected with shFHL1-2 RNA assessed as vimentin protein expression at 10 uM by western blot analysis; type: functional, cell-based
[19] = tested on: SK-OV-3; experiment: Downregulation of EMT signalling in human SK-OV-3 cells transfected with shFHL1-1 RNA assessed as N-cadherin protein expression at 10 uM by western blot analysis; type: functional, cell-based
[20] = tested on: SK-OV-3; experiment: Downregulation of EMT signalling in human SK-OV-3 cells transfected with shFHL1-1 RNA assessed as vimentin protein expression at 10 uM by western blot analysis; type: functional, cell-based
[21] = tested on: SK-OV-3; experiment: Inhibition of cell invasion in human SK-OV-3 cells transfected with shFHL1-1 RNA at 10 uM measured after 48 hrs by Transwell assay; type: functional, cell-based
[22] = tested on: SK-OV-3; experiment: Inhibition of cell invasion in human SK-OV-3 cells transfected with shFHL1-2 RNA at 10 uM measured after 48 hrs by Transwell assay; type: functional, cell-based
[23] = tested on: A2780; experiment: Inhibition of cell migration in human A2780 cells transfected with shFHL1-1 RNA at 10 uM measured after 24 to 48 hrs by wound healing assay; type: functional, cell-based; settings: time 24-48 hrs
[24] = tested on: SK-OV-3; experiment: Inhibition of cell migration in human SK-OV-3 cells transfected with shFHL1-1 RNA at 10 uM measured after 24 to 48 hrs by wound healing assay; type: functional, cell-based; settings: time 24-48 hrs
[25] = tested on: A2780; experiment: Potentiation of olaparib sensitivity in human A2780 cells transfected with shFLH1-1 RNA assessed as downregulation of EMT signaling by measuring N-cadherin protein expression at 10 uM in presence of olaparib by western blot analysis; type: functional, cell-based
[26] = tested on: A2780; experiment: Potentiation of olaparib sensitivity in human A2780 cells transfected with shFLH1-1 RNA assessed as downregulation of EMT signaling by measuring vimentin protein expression at 10 uM in presence of olaparib by western blot analysis; type: functional, cell-based
[27] = tested on: SK-OV-3; experiment: Potentiation of olaparib sensitivity in human SK-OV-3 cells transfected with shFLH1-1 RNA assessed as downregulation of EMT signaling by measuring E-cadherin protein expression at 10 uM in presence of olaparib by western blot analysis; type: functional, cell-based
[28] = tested on: SK-OV-3; experiment: Potentiation of olaparib sensitivity in human SK-OV-3 cells transfected with shFLH1-1 RNA assessed as downregulation of EMT signaling by measuring N-cadherin protein expression at 10 uM in presence of olaparib by western blot analysis; type: functional, cell-based
[29] = tested on: A2780; experiment: Potentiation of olaparib sensitivity in human A2780 cells transfected with shFHL1-2 RNA assessed as inhibition of cell invasion at 10 uM measured after 48 hrs in presence of olaparib by Transwell assay; type: functional, cell-based
[30] = tested on: SK-OV-3; experiment: Potentiation of olaparib sensitivity in human SK-OV-3 cells transfected with shFHL1-1 RNA assessed as inhibition of cell invasion at 10 uM measured after 48 hrs in presence of olaparib by Transwell assay; type: functional, cell-based
[31] = tested on: A2780; experiment: Potentiation of olaparib-induced antitumor activity against shNC RNA-transfected human A2780 cells xenografted in BALB/c mouse assessed as decrease in tumor volume at 15 mg/kg, ip co-administered with olaparib for 2 weeks; type: functional, organism-based
[32] = tested on: A2780; experiment: Potentiation of olaparib-induced antitumor activity against shNC RNA-transfected human A2780 cells xenografted in BALB/c mouse assessed as decrease in tumor weight at 15 mg/kg, ip co-administered with olaparib for 2 weeks; type: functional, organism-based
[33] = tested on: Mus musculus; experiment: Potentiation of olaparib sensitivity in BALB/c mouse xenografted with shNC RNA-transfected human A2780 cells assessed as upregulation of E-cadherin protein expression in tumor at 15 mg/kg, ip co-administered with olaparib for 2 weeks by western blot analysis; type: functional, organism-based
[34] = tested on: Mus musculus; experiment: Potentiation of olaparib sensitivity in BALB/c mouse xenografted with shFHL1-1 RNA-transfected human A2780 cells assessed as downregulation of vimentin protein expression in tumor at 15 mg/kg, ip co-administered with olaparib for 2 weeks by western blot analysis; type: functional, organism-based

## CC[C@]12C=CCN3CC[C@]4(C(=C(C(=O)OC)C1)Nc1ccccc14)[C@@H]32 [TABERSONINE]
[1]
  IC50: 18 µM
[2]
  IC50: 25 µM
[3]
  CI: <1
[4]
  Activity: Active
[5]
  Activity: Non-Toxic
[6]
  Activity: Active
[7]
  Activity: Active
[8]
  Activity: Active
[9]
  inhibition: Active
[10]
  inhibition: Active
[11]
  Activity: Active
[12]
  Activity: Active
[13]
  inhibition: Active
[14]
  Activity: Dose-Dependent Effect
[15]
  Activity: Dose-Dependent Effect
[16]
  inhibition: inactive
[17]
  inhibition: inactive
[18]
  inhibition: inactive
[19]
  inhibition: inactive
[20]
  inhibition: inactive
[21]
  inhibition: inactive
[22]
  inhibition: inactive
[23]
  inhibition: inactive
[24]
  inhibition: inactive
[25]
  Activity: inactive
[26]
  Activity: inactive
[27]
  Activity: inactive
[28]
  Activity: inactive
[29]
  Activity: inactive
[30]
  Activity: inactive
[31]
  Activity: Active
[32]
  Activity: Active
[33]
  Activity: Active
[34]
  Activity: inactive
